≈ marks a conversion by molar mass, not a printed value. Entries after “also recorded” stand apart in the source; their conditions may differ.
How the values were obtained:
K-ras-NIH 3T3 cells [1] = assay: Propagation inhibitory effect on K-ras-NIH 3T3 cells; assay type: cell-based; settings: Mus musculus, NIH3T3, 72 h; K-ras-NIH 3T3, 3 days; read-out: IC50, cell propagation
Protocol: (§1) Normal rat kidney cell, NRK-49 (Dainihon Pharmaceutical K.K.) and normal mouse cell, NIH 3T3 (JCRB Cell Bank); and K-ras NIH 3T3, H-ras NIH 3T3, and N-ras NIH 3T3 (Tokyo University, Medical Science Institute, Japan) which are cell lines that have been transformed with Kirsten sarcoma virus, Harvey sarcoma virus, and neuroblastoma virus, respectively, were incubated at 37° C. in the similar manner.
(§2) Next, cells of different types were inoculated in wells of 12 wells plastic plate (Costar 3521, manufactured by Costar) at 2.0×10^4 /DMEM 1 ml/well, and the plate was incubated in an incubator of 5% CO2 for one day. III-121C was added to the thus incubated cells to different concentrations and incubation was continued for another 3 days. The number of cells was measured by repeating the above-described procedure to determine the concentration (IC50) of the III-121C required to inhibit the cell propagation to 50%.

K-ras NRK cells = assay: Propagation inhibitory effect on K-ras NRK cells; assay type: cell-based; settings: Rattus norvegicus, 72 h, 3 days, read-out: IC50, cell propagation
Protocol: as §2

NIH 3T3 cells = assay: Propagation inhibitory effect on NIH 3T3 cells; assay type: cell-based; settings: Mus musculus, NIH3T3, 72 h; NIH 3T3, 3 days; read-out: IC50, cell propagation
Protocol: as §1, §2

RSV NRK cells = assay: Propagation inhibitory effect on RSV NRK cells; assay type: cell-based; settings: Rattus norvegicus, 72 h, 33° C., 3 days, read-out: IC50, cell propagation
K-ras^ts-NRK cells [2] = assay: Action mechanism: morphology / M phase observation in K-ras^ts-NRK cells; assay type: cell-based, rat
Protocol: Before the addition of the III-121C, the cells grew atop the other and had projections or processes on their surface (FIG. 9(a)).
The procedure as described above was repeated by replacing the III-121C with 0.1 μg/ml of vinblastine, 0.1 μg/ml of vincristine and 0.1 μg/ml of colchicine, which are known as microtubule formation inhibitors.

K-ras-NIH 3T3 cells [3] = assay: Activity to induce changes in cell morphology, K-ras-NIH 3T3 cells; assay type: cell-based, mouse; settings: 0.3 μg/ml, 2 days
Protocol: as §1
(§3) The effect of the III-121C on various types of cultured cells was evaluated by inoculating each type of cells in wells of 24 wells plastic plate (Costar 3524, manufactured by Costar) at 3×10^4 cells/1 ml medium/well; incubating the plate in an incubator of 5% CO2 for one day; and adding the III-121C sample to the cell cultures to observe the cell morphology for another two days.
(§4) K-ras-NIH 3T3 and H-ras-NIH 3T3 are transformed cell lines, and the cells are elongated with projections or processes on their surface, and grow atop the other. N-ras-NIH 3T3 cells are also elongated and their projections or processes are even longer.

K-ras^ts-NRK cells [4] = assay: Effect on production of actin filaments, K-ras^ts-NRK cells; assay type: cell-based, rat; settings: 1 μg/ml, one day
Protocol: (§5) A cover glass with a diameter of 18 mm (manufactured by Matsunami Glass Industry K.K.) that had been washed with 100% ethanol, dried, and sterilized was placed in wells of 12 wells plastic plate, and the cells were inoculated in the wells at 3.0×10^4 /DMEM 1 ml/well. The plate was incubated in an incubator of 5% CO2 for 1 day. To the thus incubated cell culture was added 1 μg/ml of III-121C, and the incubation was continued for another one day. The cell culture was then fixed with paraformaldehyde. The fixed cell culture was reacted with rhodamine pharoidine reagent (Molecular Probe Inc.) to examine the cell morphology by fluorescence microscope with G filter (excitation, 546 nm).

H-ras-NIH 3T3 cells [5] = assay: Effect on production of actin filaments, H-ras-NIH 3T3 cells; assay type: cell-based, mouse; settings: 1 μg/ml, one day
Protocol: as §5

mouse = assay: Acute toxicity (LD50) on mouse upon intravenous injection; assay type: in vivo; settings: compared to conventional alkaloid carcinostatics of plant origin
Protocol: (§6) Toxicity (LD50) on mouse of III-121C upon intravenous injection was measured.

[6] = as above; assay type: in vivo; settings: in vivo, intravenous injection
Protocol: as §6

K-ras-NIH 3T3 cells [7] = assay: Effect on production of actin filaments, K-ras-NIH 3T3 cells; assay type: cell-based, mouse; settings: 1 μg/ml, one day
Protocol: as §5

H-ras-NIH 3T3 cells [8] = assay: Activity to induce changes in cell morphology, H-ras-NIH 3T3 cells; assay type: cell-based, mouse; settings: 0.3 μg/ml, 2 days
Protocol: as §1, §3, §4

K-ras-NRK tumor = assay: Growth of K-ras-NRK tumor in nude mice; assay type: in vivo; settings: K-ras-NRK s.c., intraperitoneal, days 0, 2, 4 (FIG. 8)
Protocol: To 4 groups of nude mice (each group comprising 6 individuals) were subcutaneously inoculated 1×10^6 cells of K-ras-NRK on their back. Formation of a small tumor was recognized after 4 days from the inoculation, and intraperitoneal administration of III-121C at different doses was started on this day (day 0). III-121C was additionally administered after two days and four days from the start of the administration to measure the volume of the tumor. No III-121C was administered to the mice of the control group. The results are depicted in FIG. 8.

cell morphology = assay: Cell morphology normalizing activity (extract, fractions, purified product); assay type: cell-based
Protocol: The inventors of the present invention then succeeded in the isolation and characterization of the active component in the extract. The present invention has been completed on the bases of such study.
To a small amount of chloroform was dissolved 1.34 g of the extract, and the resulting solution was charged in a column having packed therein 10 g of silica gel (Merck silicagel 60, manufactured by Merck). To the column was first added 100% chloroform to elute the impurities, and then, 100:1 chloroform:methanol was added and the eluate was fractionated into portions of about 10 ml. Each fraction was examined by thin layer chromatography (silica gel; 20:1 chloroform:methanol solvent; UV 330 nm), and fractions having an Rf of 0.56 with blue color were collected.
The thus obtained active substance was dissolved in a small amount of methanol. After removing the precipitates, the solution was charged in a column of Toyopearl HW-40 that had been equilibrated with methanol to thereby carry out the gel filtration chromatography. The column was eluted with 100% methanol and 3 ml fractions were collected. The thus collected fractions were analyzed by thin layer chromatography using 20:1 chloroform:methanol for the developer. […] This substance is hereinafter referred to as III-121C.

CCC12CC(C(=O)OC)=C3Nc4cc5c(cc4C34CCN(CC3OC31)C42)C1C(O5)C(O)C2(CC)CC(C(=O)OC)=C3Nc4c(cc(O)c(OC)c4OC)C34CCN1C42 (centres unmarked) [III-121C]
IC50 (K-ras-NIH 3T3 cells [1]): 0.4 µg/mL (≈ 0.503 µM) | IC50 (K-ras NRK cells): 0.4 µg/mL (≈ 0.503 µM) | IC50 (NIH 3T3 cells): 0.47 µg/mL (≈ 0.591 µM) | IC50 (RSV NRK cells): 0.11 µg/mL (≈ 0.138 µM) | anti-ras activity (K-ras^ts-NRK cells [2]; 1 μg/ml, 33° C.): has an anti-ras activity | change in cell morphology (K-ras^ts-NRK cells [2]; 33° C., 1 μg/ml, after one day): the cells no longer grew atop the other and became flat | change in cell morphology and growth habits (K-ras^ts-NRK cells [2]; 33° C., 1 μg/ml, after two days): such change in the cell morphology and growth habits were even more significant | cell division inhibitory activity (K-ras^ts-NRK cells [2]; compared with microtubule inhibitors): free from the cell division inhibitory activity; also recorded: not associated with the cell division inhibitory action | change in cell morphology and growth habits (K-ras-NIH 3T3 cells [3]): the cells changed their morphology and growth habits to those of normal NIH 3T3 cells, and became flat with an increased area of contact | actin filaments / cell morphology (K-ras^ts-NRK cells [4]): morphology of normal cells with longitudinally extending linear actin filaments | actin filaments / cell morphology (H-ras-NIH 3T3 cells [5]): morphology of normal cells with longitudinally extending linear actin filaments | acute toxicity in words (mouse): weaker toxicity; also recorded: low acute toxicity | LD50 [6]: 24.3 mg/kg | actin filaments / cell morphology (K-ras-NIH 3T3 cells [7]): morphology of normal cells with longitudinally extending linear actin filaments | change in cell morphology and growth habits (H-ras-NIH 3T3 cells [8]): the cells changed their morphology and growth habits to those of normal NIH 3T3 cells, and became flat with an increased area of contact | tumor growth inhibition (K-ras-NRK tumor): the growth of the tumor was inhibited in a dose dependent manner; also recorded: growth suppression of tumors in living mammals | activity of normalizing the cell morphology (cell morphology): confirmed to have an activity of normalizing the cell morphology
